Here are results for 1 compound from patent US11286463B2, “Reprogramming of aged adult stem cells” (priority 2012, dated 2022).

The test system of this assay is 84 genes reported to be linked to cellular aging, epigenetics and senescence. The experiment in a line: qPCR gene array of AASC in transwell culture with YASC. It counts as cell-based, human. The settings on record: 5 μM manumycin. How it is done:
In an embodiment, the methods of the present disclosure further comprise exposure of AASCs to the Intracellular Matrix (ICM) of the YASCs through placement of a transwell culture insert containing YASC into the tissue culture dish chamber. Mobilized PBMCs (1×10^7) from the second subjects are added to the outer well of 12-well transwell cultures containing a […] BD Falcon™ insert. Any membrane insert able to provide a cell-free filtrate to cultures of AASCs may be employed. In parallel, mobilized PBMCs (1×10^7) from the first subjects are added to the inner well of the 12-well plate. Cells may then be cultivated in a suitable media (e.g., RPMI-1640 (Gibco) supplemented with 10% fetal calf serum (FCS) and β-mercaptoethanol (β-ME)) for a time period of the type disclosed herein (e.g., 8-weeks), under standard culture conditions (e.g., 50% media changed every 4 days).
For experiments investigating the contribution of exosomes as the membrane-permeable factors responsible for AASC reprogramming (i.e reprogramming agents), the exosomal inhibitor manumycin A (Sigma-Aldrich) can be added to the culture media at a final concentration of 5 μM at days 0 and 14 of the cultivation period.
AASC reprogramming was carried out using the one-step process depicted in the middle workflow of FIGS. 1 and 2. […]

The structures appear in SMILES notation.

For `CCCC[C@@H](C)/C=C(C)/C=C(\C)C(=O)NC1=C[C@@](O)(/C=C/C=C/C=C/C(=O)NC2=C(O)CCC2=O)[C@@H]2O[C@@H]2C1=O` [manumycin, -[(1S,5S,6R)-5-hydroxy-5-[(1E,3E,5E)-7-[(2-hydroxy-5-oxo-1-cyclopenten-1-yl)amino]-7-oxo-1,3,5-heptatrien-1-yl]-2-oxo-7-oxabicyclo[4.1.0]hept-3-en-3-yl]-2E,4E,6R-trimethyl,2,4-decadienamide], the “gene expression levels of AASC co-cultured with YASC compared to absence of manumycin” value was “displayed changes in gene expression levels”.
